The values that follow come from US20250127835A1, “COMPOSITION BASED ON PLANT EXTRACTS AND USE THEREOF FOR THE PREVENTION AND/OR TREATMENT OF CARBOHYDRATE AND LIPID DYSMETABOLISM” (ESSERRE PHARMA SRL, priority 2021, published 2025).

Where a name gives a salt, the structure may show the parent alone.

For experiment [1], the system named is streptozocin-induced diabetic rats. The settings on record: 6 mg/kg for 5 weeks; cited from earlier work.
The subject of another experiment is hyperglycaemic subjects. The note with it: 300 mg daily dose; cited from earlier work.
For experiment [2], the system named is adult individuals with moderate hypercholesterolaemia. The experiment is described as follows: 6-arm, double-blind, placebo-controlled pilot clinical study, 12 weeks. The class given is in vivo, humans. On the procedure: All the enrolled subjects were subjected, 14 days prior to enrolment (T-14), to a pre-enrolment visit with blood tests to assess meeting the inclusion criteria. The individuals who at TO met the inclusion criteria underwent a randomization visit at which the respective treatment was assigned and blood tests were performed in relation to the reference parameters. The study lasted 12 weeks. At the end of treatment (T12), the subjects were subjected to an end-of-study visit and blood tests. The parameters investigated in the study are: Body mass index, systolic and diastolic blood pressure, blood glucose, total cholesterol, LDL, HDL, triglycerides, GOT, GPT, gGT, creatinine phosphokinase (CPK). […] The treatment called “placebo” consists of a tablet equal in shape, weight, colour size and flavour to the active tablet but containing “inert” material for the desired effect and consists of: microcrystalline cellulose, magnesium stearate, silicon dioxide, calcium phosphate, chlorophylline dye, yellow iron oxide dye, yellow coating agents. The treatments related to groups C, D, E and F consist of one tablet equal in appearance to the tablets of groups A and B but consisting of the single active ingredient, as described above in addition to excipients. The treatment tablets were packaged in anonymous white bottles, showing only the batch number consisting of an alphanumeric code and the expiration date. Neither the investigator nor the study subjects knew the contents of the bottles. The bottles of each treatment were placed in cardboard boxes containing a letter in a sealed envelope with reference to the batch number and content, to be opened only in case of need, as in cases of serious adverse events. After randomization, each study participant was given the vial with 30 tablets for the specific treatment of the group to which they belonged. All the subjects were instructed to take one tablet in the evening before bed for 12 weeks.

The test system of experiment [3] is 86 subjects of which 60 with type II diabetes mellitus. The settings on record: 100 mg per day, after 3 months of supplementation; cited from earlier work.
[4] abbreviates: after 12 weeks, printed as reduction of x% or as −x%.

With `Cc1ncc(C[n+]2csc(CCO)c2C)c(N)n1` [THIAMINE, thiamine hydrochloride], in experiment [1], the HDL-c entry is reported as “increases”, the insulin result was “increases”, the malonyldialdehyde result was “reduces” and the serum glucose result is recorded as “reduces”. Besides, in experiment [1], the total cholesterol entry is recorded as “reduces” and the triglycerides result is “reduces”. Besides, in the experiment on hyperglycaemic subjects, the diastolic pressure result is “reduces” and the systolic pressure entry was “reduces”. Further, the “reductions in the parameters of interest” value in experiment [2] (after 12 weeks) is listed as “did not show statistically significant reductions”. Also, in experiment [2] (after 12 weeks of treatment), the “increase of HDL cholesterol (HDL-C)” value was “no changes” and the “reduction of LDL cholesterol (LDL-C)” value is “did not achieve a percentage reduction”. In experiment [2] (setting [4]), the “reduction of fasting plasma glucose (FPG)” value is on record as “not detected” and the “reduction of triglycerides (TG)” value was −1%. The total cholesterol result in experiment [3] is given as “significantly reduces”.
